Converted amounts (≈) assume the structure as drawn. Like-named read-outs stand apart in the source and are kept apart here. Where a SMILES comes first, the peptide text is derived from it.
Tests used:
[1] = system: Pseudomonas aeruginosa (ATCC33350-Sero-2); settings: ATCC33350, 20 h
[2] = system: Pseudomonas fluorescens (MF37); settings: 20 h
[3] = system: Pseudomonas putida (KT2440); settings: 20 h
[4] = system: Burkholderia cenocepacia (LMG18829); settings: LMG18829, 20 h
[5] = system: Staphylococcus aureus (ATCC6538#P); settings: ATCC6538, 20 h
Escherichia coli (JM109) = test: MIC, CLSI microdilution; format: cell-based; settings: MHB, 37 °C, 20h, OD read-out, at least triplicate
Experimental: Assays were performed according to the CLSI microdilution method. Briefly, the bacterial strains were inoculated and allowed to reach an OD600 of 0.08–0.13 prior to dilution to 10^6 CFU/mL in Mueller-Hinton broth (MHB). A bacterial suspension (50 μL) was then added to each well of a 96-well microplate containing serially diluted peptide solutions (50 μL in MHB) and incubated at 37 °C for 20h. A well containing sterilized medium was used as a sterility control and another well containing no added peptide served as a growth control.

Bacillus velezensis = settings: 20 h
[6] = system: Burkholderia thailendensis (ATCC700388); settings: CLSI microdilution, MHB, 37 °C, 20h, OD read-out; at least triplicate
[7] = system: Burkholderia cenocepacia (LMG19240); settings: CLSI microdilution, MHB, 37 °C, 20h, OD read-out; at least triplicate
[8] = relative to PACAP38; cited from earlier work
[9] = system: Actinobacillus pleuropneumoniae (4074); settings: 20 h
DPP-IV = system: DPP-IV; parameters: method as in PMID 18353507; settings: cited from earlier work
[10] = system: Staphylococcus aureus (Newman); settings: 20 h
[11] = system: Bacillus cereus (ATCC11778); settings: ATCC11778, 20 h
[12] = system: Escherichia coli (O157 :H7); settings: CLSI microdilution, MHB, 37 °C, 20h, OD read-out; at least triplicate
[13] = system: Escherichia coli ATCC25922; settings: ATCC25922, 20 h
[14] = system: Bacillus circulans (LSPQ3543); settings: 20 h
[15] = system: Burkholderia cenocepacia (CEP0511 Gvar3b); settings: CLSI microdilution, MHB, 37 °C, 20h, OD read-out; at least triplicate
[16] = system: Serratia marcescens (ATCC14756); settings: ATCC14756, 20 h
[17] = system: Burkholderia cenocepacia (J2315); settings: 20 h
Bacillus subtilis (PY79) = settings: PY79, 20 h
[18] = system: Burkholderia cenocepacia (K56-2); settings: 20 h
[19] = system: Bacillus amyloliquefaciens (LMG22478); settings: LMG22478, 20 h
[20] = system: Pseudomonas aeruginosa (PA14); settings: PA14, 20 h

Row | SMILES | MIC, Pseudomonas aeruginosa (ATCC33350-Sero-2) [1] [µg/mL] | MIC, Pseudomonas fluorescens (MF37) [2] [µg/mL] | MIC, Pseudomonas putida (KT2440) [3] [µg/mL] | MIC, Burkholderia cenocepacia (LMG18829) [4] [µg/mL] | MIC, Staphylococcus aureus (ATCC6538#P) [5] [µg/mL] | MIC, Escherichia coli (JM109) (Escherichia coli (JM109)) [µg/mL] | MIC, Bacillus velezensis (Bacillus velezensis) [µg/mL] | MIC, Burkholderia thailendensis (ATCC700388) [6] [µg/mL] | MIC, Burkholderia cenocepacia (LMG19240) [7] [µg/mL] | Metabolic stability in human plasma [8] | MIC, Actinobacillus pleuropneumoniae [9] [µg/mL] | Metabolic stability against DPP-IV (DPP-IV) | MIC, Staphylococcus aureus (Newman) [10] [µg/mL] | MIC, Bacillus cereus (ATCC11778) [11] [µg/mL] | MIC, Escherichia coli (O157 :H7) [12] [µg/mL] | MIC, Escherichia coli ATCC25922 [13] [µg/mL] | MIC, Bacillus circulans (LSPQ3543) [14] [µg/mL] | MIC, Burkholderia cenocepacia (CEP0511 Gvar3b) [15] [µg/mL] | MIC, Serratia marcescens (ATCC14756) [16] [µg/mL] | MIC, Burkholderia cenocepacia (J2315) [17] [µg/mL] | also measured
1 | CC[C@H](C)[C@H](NC(=O)CNC(=O)[C@H](CC(=O)O)NC(=O)[C@H](CO)NC(=O)[C@@H](N)Cc1c[nH]cn1)C(=O)N[C@@H](Cc1ccccc1)C(=O)N[C@H](C(=O)N[C@@H](CC(=O)O)C(=O)N[C@@H](CO)C(=O)N[C@@H](Cc1ccc(O)cc1)C(=O)N[C@@H](CO)C(=O)N[C@@H](CCCNC(=N)N)C(=O)N[C@@H](Cc1ccc(O)cc1)C(=O)N[C@@H](CCCNC(=N)N)C(=O)N[C@@H](C)C(=O)N[C@@H](CCC(N)=O)C(=O)N[C@@H](CCSC)C(=O)N[C@@H](C)C(=O)N[C@H](C(=O)N[C@@H](CCCCN)C(=O)N[C@@H](CCCCN)C(=O)N[C@@H](Cc1ccc(O)cc1)C(=O)N[C@@H](CC(C)C)C(=O)N[C@@H](C)C(=O)N[C@@H](C)C(=O)N[C@H](C(=O)N[C@@H](CC(C)C)C(=O)NCC(=O)N[C@@H](CCCCN)C(=O)N[C@@H](CCCNC(=N)N)C(=O)N[C@@H](Cc1ccc(O)cc1)C(=O)N[C@@H](CCCCN)C(=O)N[C@@H](CCC(N)=O)C(=O)N[C@@H](CCCNC(=N)N)C(=O)N[C@H](C(=O)N[C@@H](CCCCN)C(=O)N[C@@H](CC(N)=O)C(=O)N[C@@H](CCCCN)C(N)=O)C(C)C)C(C)C)C(C)C)[C@@H](C)O [compound 3, [Ala^15]PACAP38] (H-HSDGIFTDSYSRYRAQMAVKKYLAAVLGKRYKQRVKNK-NH2) | >200 | >200 | 93 (≈ 20.8 µM) | >200 | >200 | 93 (≈ 20.8 µM) | 33 (≈ 7.37 µM) | >200 | >200 | improved metabolic stability | 112 (≈ 25 µM) | improved metabolic stability | >200 | >200 | >200 | >200 | 21 (≈ 4.69 µM) | >200 | >200 | 9 (≈ 2.01 µM) | MIC, Bacillus subtilis (2597) (Bacillus subtilis (2597); 2597, 20 h): 111 µg/mL (≈ 24.8 µM); MIC, Bacillus subtilis (PY79) (Bacillus subtilis (PY79)): 5 µg/mL (≈ 1.12 µM); MIC, Burkholderia cenocepacia (K56-2) [18]: >200 µg/mL; MIC, Bacillus amyloliquefaciens [19]: 10 µg/mL (≈ 2.23 µM); MIC, Pseudomonas aeruginosa (PA14) [20]: >200 µg/mL
2 | CC[C@H](C)[C@H](NC(=O)CNC(=O)[C@H](CC(=O)O)NC(=O)[C@H](CO)NC(=O)[C@@H](N)Cc1c[nH]cn1)C(=O)N[C@@H](Cc1ccccc1)C(=O)N[C@H](C(=O)N[C@@H](CC(=O)O)C(=O)N[C@@H](CO)C(=O)N[C@@H](Cc1ccc(O)cc1)C(=O)N[C@@H](CO)C(=O)N[C@@H](CCCNC(=N)N)C(=O)N[C@@H](Cc1ccc(O)cc1)C(=O)N[C@@H](CCCNC(=N)N)C(=O)N[C@@H](CCCCN)C(=O)N[C@@H](CCC(N)=O)C(=O)N[C@@H](CCSC)C(=O)N[C@@H](C)C(=O)N[C@H](C(=O)N[C@@H](C)C(=O)N[C@@H](CCCCN)C(=O)N[C@@H](Cc1ccc(O)cc1)C(=O)N[C@@H](CC(C)C)C(=O)N[C@@H](C)C(=O)N[C@@H](C)C(=O)N[C@H](C(=O)N[C@@H](CC(C)C)C(=O)NCC(=O)N[C@@H](CCCCN)C(=O)N[C@@H](CCCNC(=N)N)C(=O)N[C@@H](Cc1ccc(O)cc1)C(=O)N[C@@H](CCCCN)C(=O)N[C@@H](CCC(N)=O)C(=O)N[C@@H](CCCNC(=N)N)C(=O)N[C@H](C(=O)N[C@@H](CCCCN)C(=O)N[C@@H](CC(N)=O)C(=O)N[C@@H](CCCCN)C(N)=O)C(C)C)C(C)C)C(C)C)[C@@H](C)O [compound 4, [Ala^20]PACAP38] (H-HSDGIFTDSYSRYRKQMAVAKYLAAVLGKRYKQRVKNK-NH2) | >200 | 112 (≈ 25 µM) | 56 (≈ 12.5 µM) | >200 | >200 | 28 (≈ 6.25 µM) | 61 (≈ 13.6 µM) | >200 | >200 | improved metabolic stability | >200 | improved metabolic stability | >200 | >200 | 168 (≈ 37.5 µM) | >200 | 47 (≈ 10.5 µM) | >200 | >200 | 5 (≈ 1.12 µM) | MIC, Bacillus subtilis (2597) (Bacillus subtilis (2597); CLSI microdilution, MHB, 37 °C, 20h, OD read-out, at least triplicate): 168 µg/mL (≈ 37.5 µM); MIC, Bacillus subtilis (PY79) (Bacillus subtilis (PY79)): 3 µg/mL (≈ 0.67 µM); MIC, Burkholderia cenocepacia (K56-2) [18]: >200 µg/mL; MIC, Bacillus amyloliquefaciens [19]: 7 µg/mL (≈ 1.56 µM); MIC, Pseudomonas aeruginosa (PA14) [20]: 112 µg/mL (≈ 25 µM)

Reference: publication PMC6248945, “Antibacterial properties of the pituitary adenylate cyclase-activating polypeptide: A new human antimicrobial peptide” (PLoS ONE, 2018)
